Results reported in US9102675B2, “3-Cyanoaryl-1H-pyrrolo[2,3-B] pyridine derivatives” (MERCK PATENT GMBH, priority 2011, dated 2015).
pIC50: −log10 of the molar value.

What was measured:
[1] = molecular target: T1, IKKε (Homo sapiens, UniProt Q14164); test: IKKε kinase assay (384-well flashplate assay); type: biochemical; conditions: 10 μM ATP, 1 nM IKKε; read-out: IKKε enzyme assay IC50
T1 sequence (Q14164 1-716): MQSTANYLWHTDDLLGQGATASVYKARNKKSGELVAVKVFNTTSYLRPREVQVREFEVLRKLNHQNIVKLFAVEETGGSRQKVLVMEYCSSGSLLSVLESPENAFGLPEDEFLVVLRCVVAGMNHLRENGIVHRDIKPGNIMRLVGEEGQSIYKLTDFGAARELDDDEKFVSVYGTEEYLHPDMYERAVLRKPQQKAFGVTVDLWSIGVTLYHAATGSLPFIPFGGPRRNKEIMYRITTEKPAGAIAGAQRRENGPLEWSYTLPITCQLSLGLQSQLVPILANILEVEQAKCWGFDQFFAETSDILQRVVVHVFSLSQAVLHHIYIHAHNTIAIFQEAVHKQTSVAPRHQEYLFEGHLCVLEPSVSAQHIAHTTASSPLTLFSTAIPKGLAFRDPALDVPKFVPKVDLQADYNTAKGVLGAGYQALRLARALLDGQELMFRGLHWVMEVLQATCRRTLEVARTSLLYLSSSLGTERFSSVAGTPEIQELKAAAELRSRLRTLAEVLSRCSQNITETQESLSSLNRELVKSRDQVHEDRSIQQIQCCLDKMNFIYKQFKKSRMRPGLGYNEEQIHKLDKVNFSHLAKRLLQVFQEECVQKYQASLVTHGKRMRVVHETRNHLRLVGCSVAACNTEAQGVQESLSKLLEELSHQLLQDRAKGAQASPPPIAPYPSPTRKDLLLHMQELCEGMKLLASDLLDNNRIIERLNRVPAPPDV
Protocol: Test for the Inhibition of IKKε
IKKε—Kinase Assay (IKKepsilon)
(§1) The kinase assay is performed as 384-well flashplate assay (for example for Topcount measurement).
1 nM IKKε, 800 nM biotinylated IκKα(19-42) peptide (Biotin-C6-C6-[…]) and 10 μM ATP (spiked with 0.3 μCi of ^33P-ATP/well) are incubated at 30° C. for 2 hours in a total volume of 50 μl (10 mM MOPS, 10 mM Mg acetate, 0.1 mM EGTA, 1 mM dithiothreitol, 0.02% of Brij35, 0.1% of BSA, 0.1% of BioStab, pH 7.5) with or without test compound. The reaction is stopped using 25 μl of 200 mM EDTA. After 30 min at room temperature, the liquid is removed, and each well is washed three times with 100 μl of 0.9% sodium chloride solution. Non-specific reaction is determined in the presence of 3 μM MSC2119074 (BX-795). The radioactivity is measured using a Topcount (Perkin Elmer). The results (for example IC50 values) are calculated using program tools provided by the IT Department (for example AssayExplorer, Symyx).

[2] = molecular target: T2, TANK binding kinase (TBK1) (Homo sapiens, UniProt Q9UHD2); test: TBK1 enzyme assay (384-well flashplate kinase assay); type: biochemical; conditions: 10 μM ATP, 0.6 nM TBK1
T2 sequence (Q9UHD2 1-729): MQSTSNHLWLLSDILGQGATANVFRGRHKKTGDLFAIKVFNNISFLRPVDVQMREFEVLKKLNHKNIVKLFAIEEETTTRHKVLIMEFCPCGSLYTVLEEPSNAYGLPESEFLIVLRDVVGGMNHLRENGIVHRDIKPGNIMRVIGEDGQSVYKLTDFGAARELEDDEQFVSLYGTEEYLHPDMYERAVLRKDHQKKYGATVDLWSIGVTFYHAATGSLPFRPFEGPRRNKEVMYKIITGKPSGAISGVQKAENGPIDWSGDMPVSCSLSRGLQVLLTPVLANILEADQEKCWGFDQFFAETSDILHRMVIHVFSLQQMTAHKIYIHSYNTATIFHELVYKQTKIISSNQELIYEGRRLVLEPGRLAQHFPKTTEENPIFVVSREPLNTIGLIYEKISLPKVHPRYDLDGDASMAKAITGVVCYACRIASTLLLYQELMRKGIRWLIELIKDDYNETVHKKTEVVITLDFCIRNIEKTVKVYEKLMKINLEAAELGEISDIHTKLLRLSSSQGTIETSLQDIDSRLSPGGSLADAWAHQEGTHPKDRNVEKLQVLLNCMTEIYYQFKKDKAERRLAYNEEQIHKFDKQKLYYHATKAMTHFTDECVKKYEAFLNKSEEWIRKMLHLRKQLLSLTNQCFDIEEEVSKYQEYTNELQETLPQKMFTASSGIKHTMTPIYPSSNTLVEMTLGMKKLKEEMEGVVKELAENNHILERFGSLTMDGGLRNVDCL
Protocol: Test for the Inhibition of TBK1
as §1
0.6 nM TANK binding kinase (TBK1), 800 nM biotinylated MELK-derived peptide (biotin-Ah-Ah-[…]) and 10 μM ATP (spiked with 0.25 μCi of ^33P-ATP/well) are incubated at 30° C. for 120 min in a total volume of 50 μl (10 mM MOPS, 10 mM Mg acetate, 0.1 mM EGTA, 1 mM DTT, 0.02% of Brij35, 0.1% of BSA, pH 7.5) with or without test compound. The reaction is stopped with 25 μl of 200 mM EDTA. After 30 min at room temperature, the liquid is removed, and each well is washed three times with 100 μl of 0.9% sodium chloride solution. Non-specific reaction is measured in the presence of 100 nM staurosporine. The radioactivity is measured in a Topcount (PerkinElmer). The results (for example IC50 values) are calculated using program tools provided by the IT Department (for example Assay-Explorer, Symyx). Cell Test

Row | pIC50 [1] | pIC50 [2] | Compound
1 | > 6.52 | > 6.52 | N#Cc1cc(-c2c[nH]c3ncccc23)ccc1OC1CCOCC1 [Compound A1, 5-(1H-pyrrolo[2,3-b]pyridin-3-yl)-2-tetrahydropyran-4-yloxybenzonitrile]
2 | > 6.52 | > 6.52 | Cn1cc(-c2cnc3[nH]cc(-c4ccc(OC5CCOCC5)c(C#N)c4)c3c2)cn1 [Compound A4, 5-[5-(1-methylpyrazol-4-yl)-1H-pyrrolo[2,3-b]pyridin-3-yl]-2-tetrahydropyran-4-yloxybenzonitrile]
3 | > 6.52 | > 6.52 | N#Cc1cc(-c2c[nH]c3ncc(-c4cnn(CCN5CCOCC5)c4)cc23)ccc1OC1CCOCC1 [Compound A7, 5-[5-[1-(2-morpholinoethyl)pyrazol-4-yl]-1H-pyrrolo[2,3-b]pyridin-3-yl]-2-tetrahydropyran-4-yloxybenzonitrile]
4 | > 6.52 | > 6.52 | N#Cc1cc(-c2c[nH]c3ncc(-c4ccc(N5CCOCC5)cc4)cc23)ccc1OC1CCOCC1 [Compound A8, 5-[5-(4-morpholinophenyl)-1H-pyrrolo[2,3-b]pyridin-3-yl]-2-tetrahydropyran-4-yloxybenzonitrile]
5 | > 6.52 | > 6.52 | N#Cc1cc(-c2c[nH]c3ncc(-c4cnn(CCN5CCCC5)c4)cc23)ccc1OC1CCOCC1 [Compound A9, 5-[5-[1-(2-pyrrolidin-1-ylethyl)pyrazol-4-yl]-1H-pyrrolo[2,3-b]pyridin-3-yl]-2-tetrahydropyran-4-yloxybenzonitrile]
6 | > 6.52 | > 6.52 | COCCn1cc(-c2cnc3[nH]cc(-c4ccc(OC5CCOCC5)c(C#N)c4)c3c2)cn1 [Compound A10, 5-[5-[1-(2-methoxyethyl)pyrazol-4-yl]-1H-pyrrolo[2,3-b]pyridin-3-yl]-2-tetrahydropyran-4-yloxybenzonitrile]
7 | > 6.52 | > 6.52 | N#Cc1cc(-c2c[nH]c3ncc(-c4cnn(C5CCNCC5)c4)cc23)ccc1OC1CCOCC1 [Compound A12, 5-[5-(1-piperidin-4-yl-1H-pyrazol-4-yl)-1H-pyrrolo[2,3-b]pyridin-3-yl]-2-(tetrahydropyran-4-yloxy)benzonitrile]
8 | > 6.52 | > 6.52 | CN1CCC(Oc2ccc(-c3c[nH]c4ncc(-c5cnn(C)c5)cc34)cc2C#N)CC1 [Compound A13, 2-(1-methylpiperidin-4-yloxy)-5-[5-(1-methyl-1H-pyrazol-4-yl)-1H-pyrrolo[2,3-b]pyridin-3-yl]benzonitrile]
9 | > 6.52 | > 6.52 | N#Cc1cc(-c2c[nH]c3ncc(-c4cnn(CCO)c4)cc23)ccc1OC1CCOCC1 [Compound A15, 5-[5-[1-(2-hydroxyethyl)pyrazol-4-yl]-1H-pyrrolo[2,3-b]pyridin-3-yl]-2-tetrahydropyran-4-yloxybenzonitrile]
10 | > 6.52 | > 6.52 | CN1CCC(n2cc(-c3cnc4[nH]cc(-c5ccc(OC6CCOCC6)c(C#N)c5)c4c3)cn2)CC1 [Compound A16, 5-[5-[1-(1-methyl-4-piperidyl)pyrazol-4-yl]-1H-pyrrolo[2,3-b]pyridin-3-yl]-2-tetrahydropyran-4-yloxybenzonitrile]
11 | 5.52 to 6.52 | 5.52 to 6.52 | CN1CCN(c2cnc3[nH]cc(-c4ccc(OC5CCOCC5)c(C#N)c4)c3c2)CC1 [Compound A17, 5-[5-(4-methylpiperazin-1-yl)-1H-pyrrolo[2,3-b]pyridin-3-yl]-2-tetrahydropyran-4-yloxybenzonitrile]
12 | > 6.52 | > 6.52 | N#Cc1cc(-c2c[nH]c3ncc(-c4cnn(C5CCNCC5)c4)cc23)cnc1OC1CCOCC1 [Compound A18, 5-[5-[1-(4-piperidyl)pyrazol-4-yl]-1H-pyrrolo[2,3-b]pyridin-3-yl]-2-tetrahydropyran-4-yloxypyridine-3-carbonitrile]
13 | > 6.52 | > 6.52 | CN1CCC(n2cc(-c3cnc4[nH]cc(-c5ccc(OC6CCOCC6)c(C#N)c5)c4c3)cn2)CC1 [Compound A20, 5-[5-[1-(1-methyl-4-piperidyl)pyrazol-4-yl]-1H-pyrrolo[2,3-b]pyridin-3-yl]-2-tetrahydropyran-4-yloxybenzonitrile]
14 | > 6.52 | > 6.52 | N#Cc1cc(-c2c[nH]c3ncc(OCCN4CCOCC4)cc23)ccc1OC1CCOCC1 [Compound A21, 5-[5-(2-morpholinoethoxy)-1H-pyrrolo[2,3-b]pyridin-3-yl]-2-tetrahydropyran-4-yloxybenzonitrile]
15 | > 6.52 | > 6.52 | N#Cc1cc(-c2c[nH]c3ncc(-c4cn(C5CCNCC5)nn4)cc23)ccc1OC1CCOCC1 [Compound A22, 5-[5-[1-(4-piperidyl)triazol-4-yl]-1H-pyrrolo[2,3-b]pyridin-3-yl]-2-tetrahydropyran-4-yloxybenzonitrile]
16 | > 6.52 | > 6.52 | CN1CCC(n2cc(-c3cnc4[nH]cc(-c5ccc(OC6CCOCC6)c(C#N)c5)c4c3)nn2)CC1 [Compound A23, 5-[5-[1-(1-methyl-4-piperidyl)triazol-4-yl]-1H-pyrrolo[2,3-b]pyridin-3-yl]-2-tetrahydropyran-4-yloxybenzonitrile]
17 | > 6.52 | > 6.52 | CC1(COc2ccc(-c3c[nH]c4ncc(-c5cnn(C6CCNCC6)c5)cc34)cc2C#N)COC1 [Compound A24, 2-[(3-Methyloxetan-3-yl)methoxy]-5-[5-[1-(4-piperidyl)pyrazol-4-yl]-1H-pyrrolo[2,3-b]pyridin-3-yl]-benzonitrile]
18 | > 6.52 | > 6.52 | N#Cc1cc(-c2c[nH]c3ncc(-c4cnn(C5COC5)c4)cc23)ccc1OC1CCOCC1 [Compound A26, 5-[5-[1-(Oxetan-3-yl)pyrazol-4-yl]-1H-pyrrolo[2,3-b]-pyridin-3-yl]-2-tetrahydropyran-4-yloxybenzonitrile]
19 | > 6.52 | > 6.52 | N#Cc1cc(-c2c[nH]c3ncc(-c4cn(CCN5CCCC5)nn4)cc23)ccc1OC1CCOCC1 [Compound A27, 5-[5-[1-(2-Pyrrolidin-1-ylethyl)triazol-4-yl]-1H-pyrrolo-[2,3-b]pyridin-3-yl]-2-tetrahydropyran-4-yloxybenzo-nitrile]
20 | > 6.52 | > 6.52 | Cn1cc(-c2cnc3[nH]cc(-c4cnc(OC5CCOCC5)c(C#N)c4)c3c2)cn1 [Compound A30, 5-[5-(1-Methylpyrazol-4-yl)-1H-pyrrolo[2,3-b]pyridin-3-yl]-2-tetrahydropyran-4-yloxypyridine-3-carbonitrile]
